Consider eleven molecules from ChEMBL document CHEMBL1136072, “Structural features of piperazinyl-linked ciprofloxacin dimers required for activity against drug-resistant strains of Staphylococcus aureus” (2003).

What all share (assay type): functional
The test system of test [1] is Staphylococcus aureus. Put plainly: Minimum inhibitory concentration required against Staphylococcus aureus SA-1199, wild-type isolate.
The subject of test [2] is Staphylococcus aureus. Put plainly: Minimum inhibitory concentration required against Staphylococcus aureus GISA 992, vancomycin-insensitive SA.
Test [3] relates to Staphylococcus aureus. The test is described as follows: Minimum inhibitory concentration required against Staphylococcus aureus MRSA 494, methicillin resistant SA isolate.
Test [4] relates to Staphylococcus aureus. The test is described as follows: Minimum inhibitory concentration required against Staphylococcus aureus SA 1199-3, laboratory-derived mutant of SA 1199 that inducibly overexpresses norA, no gyrase or topoisomerase IV mutations.
The subject of test [5] is Staphylococcus aureus. The test is described as follows: Minimum inhibitory concentration required against Staphylococcus aureus SA 1199B, constitutively overexpresses norA and harbors a topoisomerase IV A subunit substitution (A116E). Further details: unit not given beside the values.

Each structure is given as a SMILES string. Where only a bound is given, the exact number is not on record here.

On to `CCn1cc(C(=O)O)c(=O)c2cnc(N3CCN(Cc4ccc(CN5CCN(c6cc7c(cc6F)c(=O)c(C(=O)O)cn7C6CC6)CC5)cc4)CC3)nc21`, for which the MIC in the test on Staphylococcus aureus [1] is given as under 0.03; with Staphylococcus aureus [2], 2; in the test with Staphylococcus aureus [3], 0.125.

For the molecule `O=C(O)c1cn(C2CC2)c2cc(N3CCN(Cc4ccc(CN5CCN(c6cc7c(cc6F)c(=O)c(C(=O)O)cn7C6CC6)CC5)cc4)CC3)c(F)cc2c1=O`, the MIC turned out to be 0.125 against Staphylococcus aureus [1] and 4 with Staphylococcus aureus [2].

In the case of `O=C(O)c1cn(C2CC2)c2cc(N3CCN(Cc4ccc(CN5CCN(c6cc7c(cc6F)c(=O)ccn7C6CC6)CC5)cc4)CC3)c(F)cc2c1=O`, the MIC in the test on Staphylococcus aureus [1] is on record as 0.25; in the test on Staphylococcus aureus [2], over 16; with Staphylococcus aureus [4], 0.5; in the test on Staphylococcus aureus [5], 0.5; in the test on Staphylococcus aureus [3] it was 1.

On to `O=C(O)c1cn(C2CC2)c2cc(N3CCN(/C=C/CN4CCNCC4)CC3)c(F)cc2c1=O`, for which the MIC is listed as 1 with Staphylococcus aureus [1]; over 16 in the test on Staphylococcus aureus [2]; 2 in the test with Staphylococcus aureus [4]; 2 against Staphylococcus aureus [5]; 2 in the test on Staphylococcus aureus [3].

Take `CN1CCN(c2cc3c(cc2F)c(=O)c(C(=O)O)cn3C2CC2)CC1`: the MIC in the test on Staphylococcus aureus [1] is 0.125; with Staphylococcus aureus [2], 32; against Staphylococcus aureus [4], 1; against Staphylococcus aureus [5], 8; against Staphylococcus aureus [3], 0.5.

For the molecule `O=C(O)c1cn(C2CC2)c2cc(N3CCN(/C=C/CN4CCN(c5ccccc5F)CC4)CC3)c(F)cc2c1=O`, the values for the MIC in the test with Staphylococcus aureus [1] and in the test with Staphylococcus aureus [2] were 0.5 and over 16, respectively.

Regarding `O=C(O)c1cn(C2CC2)c2cc(N3CCN(Cc4ccc(CN5CCN(c6ccccc6F)CC5)cc4)CC3)c(F)cc2c1=O`, the MIC is listed as 0.5 against Staphylococcus aureus [1] and 16 against Staphylococcus aureus [2].

In the case of `O=C(O)c1cn(C2CC2)c2cc(N3CCN(/C=C/CN4CCN(c5cc6c(cc5F)c(=O)c(C(=O)O)cn6C5CC5)CC4)CC3)c(F)cc2c1=O`, the MIC with Staphylococcus aureus [1] was 0.03; in the test on Staphylococcus aureus [2] it was over 16; against Staphylococcus aureus [4], 0.06; in the test with Staphylococcus aureus [3], 0.125.

On to `CN1CCN(c2cc3c(cc2F)c(=O)ccn3C2CC2)CC1`, for which the MIC against Staphylococcus aureus [1], against Staphylococcus aureus [2], against Staphylococcus aureus [4], in the test with Staphylococcus aureus [5] and against Staphylococcus aureus [3] was over 16 in each case.

With `O=C(O)c1cn(C2CC2)c2cc(N3CCN(Cc4ccc(CN5CCNCC5)cc4)CC3)c(F)cc2c1=O`, the MIC against Staphylococcus aureus [1] is recorded as 0.5; against Staphylococcus aureus [2], over 16; in the test with Staphylococcus aureus [5] it was 1; with Staphylococcus aureus [3] it was 0.25.

Take `CCn1cc(C(=O)O)c(=O)c2cnc(N3CCNCC3)nc21` [PIPEMIDIC ACID]: the MIC in the test on Staphylococcus aureus [1] and against Staphylococcus aureus [2] was over 16 throughout.
